Measured values from patent US20200255478A1, “NOVEL COMPOUNDS ACTIVATING THE NRF2 PATHWAY” (Almirall, S.A., priority 2017, published 2020).
Starred links: 1 amine or outer side, 2 acyl side, 3 side chain; linkers in the order of their positions; H or OH if unused. Positions of bridges follow the written chain, without caps; N, C: chain ends. Non-standard residues stand in square brackets, D forms with d. Residues, ends and D or L forms follow the SMILES beside them. *: point of attachment. Trp(2-yl) = O=C([C@H](Cc1c([*:3])[nH]c2ccccc12)N[*:1])[*:2]; X1 = O=C([C@@H]1C[C@H](N[*:3])CN1[*:1])[*:2]; mXylylene = c1cc(C[*:1])cc(C[*:2])c1; oXylylene = c1ccc(C[*:2])c(C[*:1])c1; Stearoyl = CCCCCCCCCCCCCCCCCC(=O)*; pXylylene = c1cc(C[*:2])ccc1C[*:1]; βAla = NCCC(=O)O

What follows are molecules tested against Keap1-Maltose Binding Protein (MBP tag) (Homo sapiens, UniProt Q14145) (assay: Nrf2-Keap1 HTRF (TR-FRET) binding assay: displacement of biotinylated ETGE peptide from Keap1-MBP). Conditions: not given.
Sequence of Keap1-Maltose Binding Protein (MBP tag) (Q14145 whole entry): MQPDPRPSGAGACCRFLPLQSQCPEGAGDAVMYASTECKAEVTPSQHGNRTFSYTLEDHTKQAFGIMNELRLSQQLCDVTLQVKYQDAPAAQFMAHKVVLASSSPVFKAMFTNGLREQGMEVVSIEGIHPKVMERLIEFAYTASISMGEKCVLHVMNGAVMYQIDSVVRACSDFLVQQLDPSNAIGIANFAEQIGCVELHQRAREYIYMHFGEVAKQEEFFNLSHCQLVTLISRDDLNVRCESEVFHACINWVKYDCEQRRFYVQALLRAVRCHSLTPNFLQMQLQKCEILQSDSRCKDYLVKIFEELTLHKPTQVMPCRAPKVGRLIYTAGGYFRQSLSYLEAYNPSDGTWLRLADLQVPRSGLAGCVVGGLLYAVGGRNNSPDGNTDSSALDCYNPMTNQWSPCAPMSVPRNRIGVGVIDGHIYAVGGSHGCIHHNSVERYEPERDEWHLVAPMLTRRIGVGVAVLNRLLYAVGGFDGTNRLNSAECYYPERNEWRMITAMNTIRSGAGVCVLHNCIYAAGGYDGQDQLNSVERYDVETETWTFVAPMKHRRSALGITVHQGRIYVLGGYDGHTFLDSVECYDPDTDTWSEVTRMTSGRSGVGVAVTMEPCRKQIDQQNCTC

Q: For `CC(C)C[C@@H]1NC(=O)[C@@H]2CCCN2C(=O)[C@H](CC(C)C)NC(=O)[C@@H]2CSc3[nH]c4ccccc4c3C[C@H](NC(=O)[C@H](CCC(N)=O)NC1=O)C(=O)N[C@@H](CC(=O)O)C(=O)N[C@@H](CCC(=O)O)C(=O)N[C@@H](CCC(=O)O)C(=O)N[C@@H]([C@@H](C)O)C(=O)NCC(=O)N[C@@H](CCC(=O)O)C(=O)N2` [Example 11, &^1Leu-Gln-Trp(indol-2-yl-&^2)-Asp-Glu-Glu-Thr-Gly-Glu-Cys(&^2)-Leu-Pro&^1] (cyclo(CLPLQ[Trp(2-yl)]DEETGE); thioether 1-6), which IC50 is on record?
A: The IC50 was 1 to 100 nM.

Q: Which IC50 does the source give for `CC(C)C[C@@H]1NC(=O)[C@@H]2CCCN2C(=O)[C@H](CC(C)C)NC(=O)[C@@H]2CSCc3ccc(cc3)CSC[C@H](NC(=O)[C@H](CCC(N)=O)NC1=O)C(=O)N[C@@H](CC(=O)O)C(=O)N[C@@H](CCC(=O)O)C(=O)N[C@@H](CCC(=O)O)C(=O)N[C@@H]([C@@H](C)O)C(=O)NCC(=O)N[C@@H](CCC(=O)O)C(=O)N2` [Example 5, {[&^1Leu-Gln-Cys(&^2)-Asp-Glu-Glu-Thr-Gly-Glu-Cys(&^3)-Leu-Pro&^1][&^2(1,4-phenylenediyl)dimethylene&^3]}] (cyclo(CDEETGECLPLQ); linker 1-8 via pXylylene) here?
A: The IC50 was 1 to 100 nM.

Q: With `CCCCCCCCCCCCCCCCCC(=O)N[C@H]1C[C@H]2C(=O)N[C@@H](CCC(N)=O)C(=O)N[C@H]3CSCc4ccccc4CSC[C@H](NC(=O)[C@H](CCC(=O)O)NC(=O)CNC(=O)[C@H]([C@@H](C)O)NC(=O)[C@H](CCC(=O)O)NC(=O)[C@@H]4CCCN4C(=O)[C@H](CC(=O)O)NC3=O)C(=O)N[C@@H](CCCCN)C(=O)N3CCC[C@@H]3C(=O)N2C1` [Example 82, {[&^1Pro((4S)-NH-Stearyl)-Gln-Cys(&^2)-Asp-Pro-Glu-Thr-Gly-Glu-Cys(&^3)-Lys-D-Pro&^1][&^2(1,2-phenylenediyl)dimethylene&^3]}] (cyclo(CDPETGECK[dP][X1](Stearoyl)Q); linker 1-8 via oXylylene) as the molecule, how does the IC50 read?
A: Its IC50 is 1 to 100 nM.

Q: How did the IC50 turn out when `CC(C)C[C@@H]1NC(=O)[C@@H]2CCCN2C(=O)[C@H](CC(C)C)NC(=O)[C@@H]2CSCc3cccc(c3)CSC[C@H](NC(=O)[C@H](CCC(N)=O)NC1=O)C(=O)N[C@@H](CC(=O)O)C(=O)N[C@@H](CCC(=O)O)C(=O)N[C@@H](CCC(=O)O)C(=O)N[C@@H]([C@@H](C)O)C(=O)NCC(=O)N[C@@H](CCC(=O)O)C(=O)N2` [Example 4, {[&^1Leu-Gln-Cys(&^2)-Asp-Glu-Glu-Thr-Gly-Glu-Cys(&^3)-Leu-Pro&^1][&^2(1,3-phenylenediyl)dimethylene&^3]}] (cyclo(CDEETGECLPLQ); linker 1-8 via mXylylene) was run?
A: The IC50 was < 1 nM.

Q: How did the IC50 turn out when `CCCCCCCCCCCCCCCCCC(=O)NCCCC[C@@H]1NC(=O)[C@H]2CCCN2C(=O)[C@H](CC(C)C)NC(=O)[C@@H]2CSCc3ccccc3CSC[C@H](NC(=O)[C@H](CCC(N)=O)NC1=O)C(=O)N[C@@H](CC(=O)O)C(=O)N1CCC[C@H]1C(=O)N[C@@H](CCC(=O)O)C(=O)N[C@@H]([C@@H](C)O)C(=O)NCC(=O)N[C@@H](CCC(=O)O)C(=O)N2` [Example 91, {[&^1Lys(N^6-Stearyl)-Gln-Cys(&^2)-Asp-Pro-Glu-Thr-Gly-Glu-Cys(&^3)-Leu-D-Pro&^1][&^2(1,2-phenylenediyl)dimethylene&^3]}] was run?
A: The IC50 was < 1 nM.

Q: For `CC(=O)N[C@H]1Cc2c([nH]c3ccccc23)SC[C@@H](C(N)=O)NC(=O)[C@H](CCC(=O)O)NC(=O)CNC(=O)[C@H]([C@@H](C)O)NC(=O)[C@H](CCC(=O)O)NC(=O)[C@H](CCC(=O)O)NC(=O)[C@H](CC(=O)O)NC1=O` [Example 7, Acetyl-Trp(indol-2-yl-&^1)-Asp-Glu-Glu-Thr-Gly-Glu-Cys(&^1)-NH2] (Ac-[Trp(2-yl)]DEETGEC-NH2; thioether 1-8), which IC50 is on record?
A: The IC50 was 1 to 100 nM.

Q: `CCCCCCCCCCCCCCCCCC(=O)N[C@H]1C[C@H]2C(=O)N[C@@H](CCC(N)=O)C(=O)N[C@H]3CSCC4(CCOCC4)CSC[C@H](NC(=O)[C@H](CCC(=O)O)NC(=O)CNC(=O)[C@H]([C@@H](C)O)NC(=O)[C@H](CCC(=O)O)NC(=O)[C@@H]4CCCN4C(=O)[C@H](CC(=O)O)NC3=O)C(=O)N[C@@H](CC(C)C)C(=O)N3CCC[C@@H]3C(=O)N2C1` [Example 100, {[&^1Pro((4S)-NH-Stearyl)-Gln-Cys(&^2)-Asp-Pro-Glu-Thr-Gly-Glu-Cys(&^3)-Leu-D-Pro&^1][&^2(tetrahydro-2H-pyran-4,4-diyl)dimethylene&^3]}] was tested. Which IC50 did it give?
A: Its IC50 is 1 to 100 nM.

Same assay, conditions: HTRF (TR-FRET); displacement of ETGE-biotin from Keap1-MBP; values banded into grades; read-out: Binding (IC50) ETGE-Keap1

Q: Which IC50 does the source give for `CC(=O)N[C@H]1CSCc2ccccc2CSC[C@@H](C(N)=O)NC(=O)[C@H](CCC(=O)O)NC(=O)CNC(=O)[C@H]([C@@H](C)O)NC(=O)[C@H](CCC(=O)O)NC(=O)[C@H](C)N(C)C(=O)[C@H](CC(=O)O)NC1=O` [Example 43, {[Acetyl-Cys(&^1)-Asp-MeAla-Glu-Thr-Gly-Glu-Cys(&^2)-NH2][&^1(1,2-phenylenediyl)dimethylene&^2]}] here?
A: Its IC50 is 1 to 100 nM.

Q: With `CC(C)C[C@H](NC(=O)[C@@H]1CSCc2cccc(c2)CSC[C@H](NC(=O)[C@H](CCC(N)=O)NC(=O)[C@@H](N)CC(C)C)C(=O)N[C@@H](CC(=O)O)C(=O)N[C@@H](CCC(=O)O)C(=O)N[C@@H](CCC(=O)O)C(=O)N[C@@H]([C@@H](C)O)C(=O)NCC(=O)N[C@@H](CCC(=O)O)C(=O)N1)C(=O)N1CCC[C@H]1C(=O)O` [Example 3, {[H-Leu-Gln-Cys(&^1)-Asp-Glu-Glu-Thr-Gly-Glu-Cys(&^2)-Leu-Pro-OH][&^1(1,3-phenylenediyl)dimethylene&^2]}] (H-LQCDEETGECLP-OH; linker 3-10 via mXylylene) as the molecule, how does the IC50 read?
A: The IC50 was 1 to 100 nM.

Q: With `CC(C)C[C@H](NC(=O)[C@@H]1CSCc2ccccc2CSC[C@H](NC(=O)[C@H](CCC(N)=O)NC(=O)[C@@H](N)CC(C)C)C(=O)N[C@@H](CC(=O)O)C(=O)N[C@@H](C)C(=O)N[C@@H](CCC(=O)O)C(=O)N[C@@H]([C@@H](C)O)C(=O)NCC(=O)N[C@@H](CCC(=O)O)C(=O)N1)C(=O)N1CCC[C@H]1C(=O)O` [Example 19, {[H-Leu-Gln-Cys(&^1)-Asp-Ala-Glu-Thr-Gly-Glu-Cys(&^2)-Leu-Pro-OH][&^1(1,2-phenylenediyl)dimethylene&^2]}] (H-LQCDAETGECLP-OH; linker 3-10 via oXylylene) as the molecule, how does the IC50 read?
A: The IC50 was 1 to 100 nM.

Q: Which IC50 does the source give for `CCCCCCCCCCCCCCCCCC(=O)N[C@H]1C[C@H]2C(=O)N[C@@H](CCC(N)=O)C(=O)N[C@H]3CSCc4ccccc4CSC[C@H](NC(=O)[C@H](CCC(=O)O)NC(=O)CNC(=O)[C@H]([C@@H](C)O)NC(=O)[C@H](CCC(=O)O)NC(=O)[C@H](CCCNC(=N)N)NC(=O)[C@H](CC(=O)O)NC3=O)C(=O)N[C@@H](CC(C)C)C(=O)N3CCC[C@@H]3C(=O)N2C1` [Example 70, {[&^1Pro((4S)-NH-Stearyl)-Gln-Cys(&^2)-Asp-Arg-Glu-Thr-Gly-Glu-Cys(&^3)-Leu-D-Pro&^1][&^2(1,2-phenylenediyl)dimethylene&^2]}] (cyclo(CDRETGECL[dP][X1](Stearoyl)Q); linker 1-8 via oXylylene) here?
A: The IC50 was < 1 nM.

Q: For `CC(C)C[C@H](NC(=O)[C@@H]1CSCc2ccccc2CSC[C@H](NC(=O)[C@H](CCC(N)=O)NC(=O)[C@@H](N)CC(C)C)C(=O)N[C@@H](CC(=O)O)C(=O)N[C@@H](Cc2ccc(F)cc2)C(=O)N[C@@H](CCC(=O)O)C(=O)N[C@@H]([C@@H](C)O)C(=O)NCC(=O)N[C@@H](CCC(=O)O)C(=O)N1)C(=O)N1CCC[C@H]1C(=O)NCCC(=O)N[C@@H](CCCNC(=N)N)C(=O)N[C@@H](CCCCN)C(=O)N[C@@H](CCCCN)C(=O)N[C@@H](CCCNC(=N)N)C(=O)N[C@@H](CCCNC(=N)N)C(=O)N[C@@H](CCC(N)=O)C(=O)N[C@@H](CCCNC(=N)N)C(=O)N[C@@H](CCCNC(=N)N)C(=O)N[C@@H](CCCNC(=N)N)C(N)=O` [Example 71], which IC50 is on record?
A: Its IC50 is 1 to 100 nM.

Q: With `CCCCCCCCCCCCCCCCCC(=O)NCCC(=O)N[C@H](C(=O)N[C@H](C(=O)N[C@H]1CSCc2ccccc2CSC[C@@H](C(=O)N[C@H](C(=O)N[C@H](C(N)=O)C(C)C)C(C)C)NC(=O)[C@H](CCC(=O)O)NC(=O)CNC(=O)[C@H]([C@@H](C)O)NC(=O)[C@H](CCC(=O)O)NC(=O)[C@@H]2CCCN2C(=O)[C@H](CC(=O)O)NC1=O)C(C)C)C(C)C` [Example 52, {[Stearyl-βAla-Val-Val-Cys(&^1)-Asp-Pro-Glu-Thr-Gly-Glu-Cys(&^2)-Val-Val-NH2][&^1(1,2-phenylenediyl)dimethylene&^2]}] ({Stearoyl-βAla}-VVCDPETGECVV-NH2; linker 3-10 via oXylylene) as the molecule, how does the IC50 read?
A: The IC50 was 1 to 100 nM.

Q: How did the IC50 turn out when `CCCCCCCCCCCCCCCCCC(=O)N[C@H]1C[C@H]2C(=O)N[C@@H](CCC(N)=O)C(=O)N[C@H]3CSCc4ccccc4CSC[C@H](NC(=O)[C@H](CCC(=O)O)NC(=O)CNC(=O)[C@H]([C@@H](C)O)NC(=O)[C@H](CCC(=O)O)NC(=O)[C@@H]4CSCN4C(=O)[C@H](CC(=O)O)NC3=O)C(=O)N[C@@H](CC(C)C)C(=O)N3CCC[C@@H]3C(=O)N2C1` [Example 78, {[&^1Pro((4S)-NH-Stearyl)-Gln-Cys(&^2)-Asp-Thz-Glu-Thr-Gly-Glu-Cys(&^3)-Leu-D-Pro&^1][&^2(1,2-phenylenediyl)dimethylene&^3]}] was run?
A: Its IC50 is < 1 nM.

Q: `Cc1cc(C)c2c(C)c1CSC[C@@H](C(=O)N[C@@H](CC(C)C)C(=O)N1CCC[C@H]1C(=O)NCCC(=O)N[C@@H](CCCNC(=N)N)C(=O)N[C@@H](CCCCN)C(=O)N[C@@H](CCCCN)C(=O)N[C@@H](CCCNC(=N)N)C(=O)N[C@@H](CCCNC(=N)N)C(=O)N[C@@H](CCC(N)=O)C(=O)N[C@@H](CCCNC(=N)N)C(=O)N[C@@H](CCCNC(=N)N)C(=O)N[C@@H](CCCNC(=N)N)C(N)=O)NC(=O)[C@H](CCC(=O)O)NC(=O)CNC(=O)[C@H]([C@@H](C)O)NC(=O)[C@H](CCC(=O)O)NC(=O)[C@@H]1CCCN1C(=O)[C@H](CC(=O)O)NC(=O)[C@@H](NC(=O)[C@H](CCC(N)=O)NC(=O)[C@@H](N)CC(C)C)CSC2` [Example 67] was tested. Which IC50 did it give?
A: The IC50 was 1 to 100 nM.

Q: `CCCCCCCCCCCCCCCCCC(=O)NCCC(=O)N[C@@H](CC(C)C)C(=O)N[C@@H](CCC(N)=O)C(=O)N[C@H]1CSCc2ccccc2CSC[C@@H](C(=O)N[C@@H](CC(C)C)C(=O)N2CCC[C@H]2C(=O)O)NC(=O)[C@H](CCC(=O)O)NC(=O)CNC(=O)[C@H]([C@@H](C)O)NC(=O)[C@H](CCC(=O)O)NC(=O)[C@@H]2CCCN2C(=O)[C@H](CC(=O)O)NC1=O` [Example 35, {[Stearyl-βAla-Leu-Gln-Cys(&^1)-Asp-Pro-Glu-Thr-Gly-G1u-Cys(&^2)-Leu-Pro-OH][&^1(1,2-phenylenediyl)dimethylene&^2]}] ({Stearoyl-βAla}-LQCDPETGECLP-OH; linker 3-10 via oXylylene) was tested. Which IC50 did it give?
A: The IC50 was 1 to 100 nM.
